From ChEMBL document CHEMBL5729666, “Substituted [1,2,4]triazolo[4,3-a]pyrazines as modulators of sodium channel activity” (2023)

Target: T1, Cytochrome P450 1A2 (Homo sapiens, UniProt P05177)
T1 sequence (P05177 whole entry): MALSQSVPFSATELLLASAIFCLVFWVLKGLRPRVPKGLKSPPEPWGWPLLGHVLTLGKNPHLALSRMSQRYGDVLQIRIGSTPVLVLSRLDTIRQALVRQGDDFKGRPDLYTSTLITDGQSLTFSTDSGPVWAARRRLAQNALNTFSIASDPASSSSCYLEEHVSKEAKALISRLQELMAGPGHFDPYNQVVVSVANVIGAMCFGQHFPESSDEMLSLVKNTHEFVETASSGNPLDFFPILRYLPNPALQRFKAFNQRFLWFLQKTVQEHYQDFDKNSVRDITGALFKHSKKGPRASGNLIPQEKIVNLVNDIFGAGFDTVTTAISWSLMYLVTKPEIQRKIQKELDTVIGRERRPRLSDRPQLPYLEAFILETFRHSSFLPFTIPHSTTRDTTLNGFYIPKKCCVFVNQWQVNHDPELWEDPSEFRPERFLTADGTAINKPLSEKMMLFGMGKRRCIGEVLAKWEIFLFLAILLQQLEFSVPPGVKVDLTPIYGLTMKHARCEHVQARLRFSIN
Test: CYP1A2 Inhibition Assay: CYP1A2 Inhibition in Human Liver Microsomes. Pooled human liver microsomes were incubated with individual CYP, CYP1A2, isozyme-specific marker substrate (Phenacetin) in the presence of test compound at various concentrations (0.05, 0.15, 0.5, 1.5, 5, 15, 50 uM). The specific marker metabolites are measured with LC/MS/MS. The remaining enzymatic activities and inhibitory potency IC50 are determined. Procedure: Microsomes are removed out of the −80° C. freezer to thaw on ice and 20 μL of the substrates solution added to the corresponding wells. Then 20 μL PB was added to blank wells and 2 μL of the test compounds and positive control working solution added to the corresponding wells. 2 μL of solvent was added to No Inhibitor wells and Blank wells. Then 158 μL of the HLM working solution was added to all wells of the incubation plate. The plate was pre-warmed for about 10 min using a 37° C. water bath. Then 20 μL of the NADPH cofactor solution was added to all incubation wells, mixed and incubated for 10 minutes at 37° C. water bath. The reaction is terminated by adding 400 μL cold stop solution (200 ng/mL Tolbutamide and 200 ng/mL Labetalol in ACN). The samples were centrifuged at 4000 rpm for 20 minutes to precipitate protein. Finally 200 μL of the supernatant was transferred to 100 μL HPLC water, shaken for 10 min and analyzed by LC/MS/MS.

Row | IC50 | Structure (SMILES)
1 | in the range around 8 µM | O=C(NNc1cnc(-c2ccc(OC(F)(F)F)cc2)cn1)C1(F)CC1
2 | < 1 µM | FC(F)(F)Oc1ccc(-c2ccc3nnc(C(F)(F)Cl)n3n2)cc1
